Read-outs that look alike come from different tables or passages of the source.
Assays:
LoVo-Dox = assay: Inhibition of cells growth by colorimetric assay (SRB); details: Homo sapiens, 48 h
Procedure: (§1) This form of the assay employs 96 well cell culture microplates of 9 mm diameter (Faircloth, 1988; Mosmann, 1983). Most of the cell lines are obtained from American Type Culture Collection (ATCC) derived from different human cancer types.
(§2) Cells are maintained in RPMI 1640 10% FBS, supplemented with 0.1 g/l penicillin and 0.1 g/l streptomycin sulfate and then incubated at 37° C., 5% CO2 and 98% humidity. For the experiments, cells were harvested from subconfluent cultures using trypsin and resuspended in fresh medium before plating.
(§3) Cells are seeded in 96 well microtiter plates, at 5×10^3 cells per well in aliquots of 195 μl medium, and they are allowed to attach to the plate surface by growing in drug free medium for 18 hours. Afterward, samples are added in aliquots of 5 μl in a ranging from 10 to 10^−8 μg/ml, dissolved in DMSO/EtOH/PBS (0.5:0.5:99). After 48 hours exposure, the antitumor effect are measured by the SRB methodology: cells are fixed by adding 50 μl of cold 50% (wt/vol) trichloroacetic acid (TCA) and incubating for 60 minutes at 4° C. Plates are washed with deionized water and dried. One hundred μl of SRB solution (0.4% wt/vol in 1% acetic acid) is added to each microtiter well and incubated for 10 minutes at room temperature. Unbound SRB is removed by washing with 1% acetic acid. Plates are air dried and bound stain is solubilzed with Tris buffer. Optical densities are read on a automated spectrophotometric plate reader at a single wavelength of 490 nm.
(§4) The values for mean +/− SD of data from triplicate wells are calculated. Some parameters for cellular responses can be calculated: GI=growth inhibition, TGI=total growth inhibition (cytostatic effect) and LC=cell killing (cytotoxic effect).

SK-MEL-28 = assay: as above; details: Homo sapiens, SK-MEL-28, 48 h
Procedure: as §1, §2, §3, §4

HeLa = assay: as above; details: Homo sapiens, HeLa, 48 h
Procedure: as §1, §2, §3, §4

HeLa-APL = assay: as above; details: Homo sapiens, 48 h
Procedure: as §1, §2, §3, §4

DU-145 = assay: as above; details: Homo sapiens, DU-145, 48 h
Procedure: as §1, §2, §3, §4

IGROV-1 = assay: as above; details: Homo sapiens, IGROV-1, 48 h
Procedure: as §1, §2, §3, §4

SK-BR-3 = assay: as above; details: Homo sapiens, SK-BR-3, 48 h
Procedure: as §1, §2, §3, §4

K-562 = assay: as above; details: Homo sapiens, K562, 48 h
Procedure: as §1, §2, §3, §4

IGROV-ET = assay: as above; details: Homo sapiens, 48 h
Procedure: as §1, §2, §3, §4

LNCaP = assay: as above; details: Homo sapiens, LNCaP, 48 h
Procedure: as §1, §2, §3, §4

PANC-1 = assay: as above; details: Homo sapiens, PANC-1, 48 h
Procedure: as §1, §2, §3, §4

HT-29 = assay: cells; details: Homo sapiens, HT-29, 48 h
In short: (§5)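 Colorimetric SRB read (490 nm) on triplicate wells after 48 h at 37 °C, 5% CO2. Dose range 10 to 10^−8 μg/ml; 5×10^3 cells/well pre-attached 18 h.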

A-549 = assay: cells; details: Homo sapiens, A549, 48 h
In short: as §5

LoVo = assay: cells; details: Homo sapiens, LoVo, 48 h
In short: as §5

COc1cc2c(cc1O)CCN[C@]21C[S+]([O-])[C@@H]2c3c(OC(C)=O)c(C)c4c(c3[C@H](COC1=O)N1C2C2c3c(cc(C)c(OC)c3O)C[C@@H]([C@@H]1O)N2C)OCO4 (stereo partly shown) [Et-759B]
GI50 (LoVo-Dox; read-out: LOVO-DOX GI50): 192 nM
CC50 (LoVo-Dox; read-out: LOVO-DOX LC50): 12900 nM
IC (TGI) (LoVo-Dox; read-out: LOVO-DOX TGI): 625 nM
GI50 (SK-MEL-28; read-out: MEL-28 GI50): 19.7 nM
CC50 (SK-MEL-28; read-out: MEL-28 LC50): 123 nM
IC (TGI) (SK-MEL-28; read-out: MEL-28 TGI): 49.1 nM
GI50 (HeLa; read-out: HELA GI50): 21.3 nM
CC50 (HeLa; read-out: HELA LC50): 527 nM
IC (TGI) (HeLa; read-out: HELA TGI): 64.2 nM
GI50 (HeLa-APL; read-out: HELA-APL GI50): 35.9 nM
CC50 (HeLa-APL; read-out: HELA-APL LC50): 1040 nM
IC (TGI) (HeLa-APL; read-out: HELA-APL TGI): 102 nM
GI50 (DU-145; read-out: DU145 GI50): 391 nM
CC50 (DU-145; read-out: DU145 LC50): 11900 nM
IC (TGI) (DU-145; read-out: DU145 TGI): 3200 nM
GI50 (IGROV-1; read-out: IGROV GI50): 22.9 nM
CC50 (IGROV-1; read-out: IGROV LC50): 10000 nM
IC (TGI) (IGROV-1; read-out: IGROV TGI): 65.2 nM
GI50 (SK-BR-3; read-out: SK-BR3 GI50): 5.37 nM
CC50 (SK-BR-3; read-out: SK-BR3 LC50): 88.1 nM
IC (TGI) (SK-BR-3; read-out: SK-BR3 TGI): 11.6 nM
GI50 (K-562; read-out: K562 GI50): 6 nM
CC50 (K-562; read-out: K562 LC50): 12900 nM
IC (TGI) (K-562; read-out: K562 TGI): 37.9 nM
GI50 (IGROV-ET; read-out: IGROV-ET GI50): 58.2 nM
CC50 (IGROV-ET; read-out: IGROV-ET LC50): 1710 nM
IC (TGI) (IGROV-ET; read-out: IGROV-ET TGI): 273 nM
GI50 (LNCaP; read-out: LNCAP GI50): 4.64 nM
CC50 (LNCaP; read-out: LNCAP LC50): 52.2 nM
IC (TGI) (LNCaP; read-out: LNCAP TGI): 16.7 nM
GI50 (PANC-1; read-out: PANC-1 GI50): 35.5 nM
CC50 (PANC-1; read-out: PANC-1 LC50): 11000 nM
IC (TGI) (PANC-1; read-out: PANC-1 TGI): 122 nM
GI50 (HT-29; read-out: HT29 GI50): 41.9 nM
CC50 (HT-29; read-out: HT29 LC50): 12900 nM
IC (TGI) (HT-29; read-out: HT29 TGI): 2290 nM
GI50 (A-549; read-out: A549 GI50): 26.2 nM
CC50 (A-549; read-out: A549 LC50): 702 nM
IC (TGI) (A-549; read-out: A549 TGI): 61.3 nM
GI50 (LoVo; read-out: LOVO GI50): 327 nM
CC50 (LoVo; read-out: LOVO LC50): 118 nM
IC (TGI) (LoVo; read-out: LOVO TGI): 62.1 nM

COc1cc2c(cc1O)CCN[C@]21CS[C@@H]2c3c(OC(C)=O)c(C)c4c(c3[C@H](COC1=O)N1C2C2c3c(cc(C)c(OC)c3O)C[C@@H]([C@@H]1C#N)N2C)OCO4 (stereo partly shown) [Et-770]
GI50 (LoVo-Dox; read-out: LOVO-DOX GI50): 74.1 nM
IC (TGI) (LoVo-Dox; read-out: LOVO-DOX TGI): 13000 nM
GI50 (SK-MEL-28; read-out: MEL-28 GI50): 2.63 nM
CC50 (SK-MEL-28; read-out: MEL-28 LC50): 10.8 nM
IC (TGI) (SK-MEL-28; read-out: MEL-28 TGI): 5.34 nM
GI50 (HeLa; read-out: HELA GI50): 5.09 nM
IC (TGI) (HeLa; read-out: HELA TGI): 12.6 nM
GI50 (HeLa-APL; read-out: HELA-APL GI50): 2.96 nM
CC50 (HeLa-APL; read-out: HELA-APL LC50): 12.2 nM
IC (TGI) (HeLa-APL; read-out: HELA-APL TGI): 6.01 nM
GI50 (DU-145; read-out: DU145 GI50): 4.16 nM
CC50 (DU-145; read-out: DU145 LC50): 13000 nM
IC (TGI) (DU-145; read-out: DU145 TGI): 32 nM
GI50 (IGROV-1; read-out: IGROV GI50): 3.32 nM
CC50 (IGROV-1; read-out: IGROV LC50): 13000 nM
IC (TGI) (IGROV-1; read-out: IGROV TGI): 8.51 nM
GI50 (SK-BR-3; read-out: SK-BR3 GI50): 0.986 nM
CC50 (SK-BR-3; read-out: SK-BR3 LC50): 13000 nM
IC (TGI) (SK-BR-3; read-out: SK-BR3 TGI): 94.8 nM
GI50 (K-562; read-out: K562 GI50): 1.65 nM
CC50 (K-562; read-out: K562 LC50): 6630 nM
IC (TGI) (K-562; read-out: K562 TGI): 8.02 nM
GI50 (IGROV-ET; read-out: IGROV-ET GI50): 12.1 nM
CC50 (IGROV-ET; read-out: IGROV-ET LC50): 13000 nM
IC (TGI) (IGROV-ET; read-out: IGROV-ET TGI): 4500 nM
GI50 (LNCaP; read-out: LNCAP GI50): 1.48 nM
CC50 (LNCaP; read-out: LNCAP LC50): 6.34 nM
IC (TGI) (LNCaP; read-out: LNCAP TGI): 3.06 nM
GI50 (PANC-1; read-out: PANC-1 GI50): 5.53 nM
CC50 (PANC-1; read-out: PANC-1 LC50): 13000 nM
IC (TGI) (PANC-1; read-out: PANC-1 TGI): 115 nM
GI50 (HT-29; read-out: HT29 GI50): 5.86 nM
CC50 (HT-29; read-out: HT29 LC50): 13000 nM
IC (TGI) (HT-29; read-out: HT29 TGI): 13 nM
GI50 (A-549; read-out: A549 GI50): 3.24 nM
CC50 (A-549; read-out: A549 LC50): 5200 nM
IC (TGI) (A-549; read-out: A549 TGI): 6.98 nM
GI50 (LoVo; read-out: LOVO GI50): 3.09 nM
CC50 (LoVo; read-out: LOVO LC50): 11.4 nM
IC (TGI) (LoVo; read-out: LOVO TGI): 5.93 nM

C=CCOc1c(C)c2c(c3c1CC1[C@H]4c5c(cc(C)c(OC)c5O)C[C@@H]([C@H](C#N)N1[C@H]3CN)N4C)OCO2 (stereo partly shown) [compound 1]
GI50 (LoVo-Dox; read-out: GI50 LOVO-DOX): 6170 nM
CC50 (LoVo-Dox; read-out: LC50 LOVO-DOX): 19200 nM
IC (TGI) (LoVo-Dox; read-out: TGI LOVO-DOX): 19200 nM
GI50 (SK-MEL-28; read-out: GI50 MEL-28): 561 nM
CC50 (SK-MEL-28; read-out: LC50 MEL-28): 6070 nM
IC (TGI) (SK-MEL-28; read-out: TGI MEL-28): 1150 nM
GI50 (HeLa; read-out: GI50 HELA): 1080 nM
CC50 (HeLa; read-out: LC50 HELA): 18100 nM
IC (TGI) (HeLa; read-out: TGI HELA): 2840 nM
GI50 (HeLa-APL; read-out: GI50 HELA-APL): 717 nM
CC50 (HeLa-APL; read-out: LC50 HELA-APL): 7510 nM
IC (TGI) (HeLa-APL; read-out: TGI HELA-APL): 1630 nM
GI50 (DU-145; read-out: GI50 DU145): 567 nM
CC50 (DU-145; read-out: LC50 DU145): 1920 nM
IC (TGI) (DU-145; read-out: TGI DU145): 1070 nM
GI50 (IGROV-1; read-out: GI50 IGROV): 901 nM
CC50 (IGROV-1; read-out: LC50 IGROV): 19200 nM
IC (TGI) (IGROV-1; read-out: TGI IGROV): 2590 nM
GI50 (SK-BR-3; read-out: GI50 SK-BR3): 1010 nM
CC50 (SK-BR-3; read-out: LC50 SK-BR3): 19200 nM
IC (TGI) (SK-BR-3; read-out: TGI SK-BR3): 3960 nM
GI50 (K-562; read-out: GI50 K562): 361 nM
CC50 (K-562; read-out: LC50 K562): 1770 nM
IC (TGI) (K-562; read-out: TGI K562): 799 nM
GI50 (IGROV-ET; read-out: GI50 IGROV-ET): 970 nM
CC50 (IGROV-ET; read-out: LC50 IGROV-ET): 19200 nM
IC (TGI) (IGROV-ET; read-out: TGI IGROV-ET): 19200 nM
GI50 (LNCaP; read-out: GI50 LNCAP): 434 nM
CC50 (LNCaP; read-out: LC50 LNCAP): 1290 nM
IC (TGI) (LNCaP; read-out: TGI LNCAP): 747 nM
GI50 (PANC-1; read-out: GI50 PANC-1): 887 nM
CC50 (PANC-1; read-out: LC50 PANC-1): 19200 nM
IC (TGI) (PANC-1; read-out: TGI PANC-1): 4360 nM
GI50 (HT-29; read-out: GI50 HT29): 1110 nM
CC50 (HT-29; read-out: LC50 HT29): 19200 nM
IC (TGI) (HT-29; read-out: TGI HT29): 19200 nM
GI50 (A-549; read-out: GI50 A549): 1530 nM
CC50 (A-549; read-out: LC50 A549): 19200 nM
IC (TGI) (A-549; read-out: TGI A549): 6070 nM
GI50 (LoVo; read-out: GI50 LOVO): 932 nM
CC50 (LoVo; read-out: LC50 LOVO): 19200 nM
IC (TGI) (LoVo; read-out: TGI LOVO): 4000 nM
